In EP0310305B1 (priority 1987, dated 1989):
Read-outs that look alike come from different tables or passages of the source.

Legend:
Ileum = test: tissue or blood; conditions: Rattus norvegicus
[1] = system: male rats (Crj Wister Rat; 180 - 240 g); test: animal or person; assay type: in vivo; conditions: for ED50: Rattus norvegicus, 0.5 h; for Entero-pooling ED₅₀: rat, in vivo, 30 min
Male Crj Wister rats = test: animal or person; assay type: in vivo; conditions: Rattus norvegicus, po, 6 h, read-out: Cathartic Effect ED50
healthy male volunteers = conditions: human, in vivo, po
[2] = read-out: Intestinal Contraction
[3] = read-out: Intestinal Contrac-tion

| Compound | EC50 (Ileum; [2]) [µM] | ED50 ([1]; read-out: Entero-pooling ED₅₀) [mg/kg] | further results |
| --- | --- | --- | --- |
| CCCCCCC(F)C(=O)CC[C@@H]1[C@@H](C/C=C\CCCC(=O)OC)[C@@H](O)C[C@H]1O (stereo partly drawn) [Test Drug 17, 13,14-dihydro-15-keto-20-ethyl-16R,S-fluoro-PGF₂α methyl ester] | 1 to 100 | 0.6 | – |
| CCCCC(F)C(=O)CC[C@H]1[C@H](O)CC(=O)[C@@H]1C/C=C\CCCC(=O)OCC (stereo partly shown) [Test Drug 4, 13,14-dihydro-15-keto-16R,S-fluoro-PGE₂ ethyl ester] | 1 to 100 | – | ED50 ([1]; read-out: Enteropooling ED₅₀): 0.002 mg/kg |
| CCCCCC(F)C(=O)CC[C@H]1[C@H](O)CC(=O)[C@@H]1C/C=C\CCCC(=O)OC (stereo partly shown) [Test Drug 5, 13,14-dihydro-15-keto-16R,S-fluoro-20-methyl-PGE₂ methyl ester] | 1 to 100 | – | ED50 ([1]; read-out: Enteropooling ED₅₀): 0.002 mg/kg |
| 13,14-dihydro-15-keto-16R,S-fluoro-Δ²-PGA₁ methyl ester [Test Drug 10] | – | – | Entero-pooling ED₅₀ [1]: 0.2 mg/kg |
| CCCCC(F)C(=O)CC[C@@H]1[C@@H](C/C=C\CCCC(=O)O)[C@@H](O)C[C@H]1O (stereo partly drawn) [Test Drug 12, 13,14-dihydro-15-keto-16R,S-fluoro-PGF₂α] | > 100 | 0.2 | – |
| CCCCC(F)(F)C(=O)CC[C@@H]1[C@@H](C/C=C\CCCC(=O)OC)[C@@H](O)C[C@H]1O [Test Drug 14, 13,14-dihydro-15-keto-16,16-difluoro-PGF₂α methyl ester] | 1 to 100 | 0.2 | – |
| CCCCC(F)C(=O)/C=C/[C@H]1[C@H](O)CC(=O)[C@@H]1C/C=C\CCCC(=O)OC (stereo partly shown) [Test Drug 7, 15-keto-16R,S-fluoro-PGE₂ methyl ester] | 1 to 100 | – | ED50 ([1]; read-out: Enteropooling ED₅₀): 0.002 mg/kg |
| CCCCC[C@H](O)/C=C/[C@H]1C=CC(=O)[C@@H]1CCCCCCC(=O)O [Test Drug 11, PGA₁, reference compound] | – | 4 | – |
| CCCCCCC(F)C(=O)CC[C@@H]1[C@@H](C/C=C\CCCC(=O)O)[C@@H](O)C[C@H]1O (stereo partly drawn) [Test Drug 16, 13,14-dihydro-15-keto-20-ethyl-16R,S-fluoro-PGF₂α] | > 100 | 0.7 | – |
| CCCCC(F)(F)C(=O)CC[C@H]1[C@H](O)CC(=O)[C@@H]1C/C=C\CCCC(=O)OC [Test Drug 8, 13,14-dihydro-15-keto-16,16-difluoro-PGE₂ methyl ester] | 1 to 100 | – | ED50 ([1]; read-out: Enteropooling ED₅₀): 0.0002 mg/kg |
| CCCCC[C@H](O)/C=C/[C@@H]1[C@@H](C/C=C\CCCC(=O)O)[C@@H](O)C[C@H]1O [Test Drug 19, PGF₂α, reference compound] | < 1 | 4.9 | – |
| 13,14-dihydro-15-keto-16R,S-fluoro-Δ²-PGA₁ [Test Drug 9] | – | – | Entero-pooling ED₅₀ [1]: 0.2 mg/kg |
| CCCCC(F)C(=O)CC[C@H]1[C@H](O)CC(=O)[C@@H]1C/C=C\CCCC(=O)OC (stereo partly shown) [Test Drug 2, 13,14-dihydro-15-keto-16R,S-fluoro-prostaglandin] | – | – | ED50 (Male Crj Wister rats): 0.8 mg/kg; abnormality or malaise in belly at 8 hours after administration (healthy male volunteers): no particular abnormality nor malaise in belly; clinical observation (healthy male volunteers): no abnormality; other side effects (healthy male volunteers): no one complained of other side effects such as bellyache; EC50 (Ileum; [3]): 1 to 100 µM; ED50 ([1]; read-out: Entero-pooling ED50): 0.003 mg/kg |
| CCCCC(F)C(=O)/C=C/[C@H]1[C@H](O)CC(=O)[C@@H]1C/C=C\CCCC(=O)O (stereo partly shown) [Test Drug 6, 15-keto-16R,S-fluoro-PGE₂] | 1 to 100 | – | ED50 ([1]; read-out: Enteropooling ED₅₀): 0.002 mg/kg |
| CCCCC(F)C(=O)CC[C@@H]1[C@@H](C/C=C\CCCC(=O)OC)[C@@H](O)C[C@H]1O (stereo partly drawn) [Test Drug 13, 13,14-dihydro-15-keto-16R,S-fluoro-PGF₂α methyl ester] | – | 0.14 | – |
| CCCCC[C@H](O)/C=C/[C@H]1[C@H](O)CC(=O)[C@@H]1C/C=C\CCCC(=O)O [Test Drug 1, Prostaglandin E2, reference compound] | – | – | ED50 (Male Crj Wister rats): > 10 mg/kg; EC50 (Ileum; [3]): < 1 µM; ED50 ([1]; read-out: Entero-pooling ED50): 0.13 mg/kg |
| CCCCC(F)C(=O)/C=C/[C@@H]1[C@@H](C/C=C\CCCC(=O)OC)[C@@H](O)C[C@H]1O (stereo partly drawn) [Test Drug 18, 15-keto-16-R,S-fluoro-PGF₂α methyl ester] | > 100 | 0.15 | – |
| CCCCCC(F)C(=O)CC[C@@H]1[C@@H](C/C=C\CCCC(=O)OC)[C@@H](O)C[C@H]1O (stereo partly drawn) [Test Drug 15, 13,14-dihydro-15-keto-16R,S-fluoro-20-methyl-PGF₂α methyl ester] | 1 to 100 | 0.3 | – |
